In US8034556B2, “Regulation of glucose and insulin levels by GnT-4 glycosyltransferase activity” (The Regents of the University of California, priority 2004, dated 2011):

Legend:
[1] = system: islet cells; test: In vitro islet cell glucose transport assay (2-NBDG uptake); type: cell-based, mouse; details: for Km: Lineweaver-Burke plot, 5 min incubation
Protocol: Mouse islet cells were obtained as described (Josefsen et al., J. Endocrinology 14: 145-154, 1996). Briefly, the pancreatic duct was ligated distally and injected with 3 mg/ml collagenase (Sigma), 5 μg/ml DNase (Sigma) and 5.6 mM glucose in Hank's balanced salt solution (HBSS)). The pancreas was removed and incubated for 14 min at 37° C. with shaking (200 strokes/min). The suspension was passed through a 16 gauge needle, centrifuged and suspended in the bottom layer of a discontinuous Ficoll gradient (11%, 20%, 23%, and 25%). After 15 min of centrifugation at 800× gravity at room temperature, cells were recovered from the interfaces and washed in HBSS, followed by hand selection of the islet-enriched interface under a stereomicroscope. Islets were gently dispersed after three consecutive washes with HBSS, then exposed to 0.5 U/ml of dispase (Calbiochem) in HBSS for 3 min. This was followed by gentle repetitive pipeting and a final wash with HBSS. The cells were cultured in RPMI-1640 medium containing 10% FCS, 2 mM L-glutamine, 0.1 mM 2-mercaptoethanol, and 11 mM glucose.
Glucose transport into islet cells was measured using 2-[N-(7-nitrobenz-2-oxa-1,3-diazol-4-yl)amino]-2-deoxy-D-glucose (2-NBDG, Molecular Probes) as described (Yamada et al., J. Biol. Chem. 275: 22278-22283, 2000) Islet cells were incubated in glucose free-KRBH for 20 min at 37° C., and then with various concentrations of 2-NBDG. To measure the time course of 2-NBDG transport, islet cells were incubated with 500 μM of 2-NBDG in KRBH in the presence or absence of 10 mM D-glucose for the indicated times (FIG. 2K), then washed three times with glucose free-KRBH, and intracellular fluorescence (excitation 485-495 nm, emission 515-525 nm) was measured using a VersaFluor Fluorometer System (Bio-Rad, Hercules, Calif.). Concentration dependence was determined in same conditions except that cells were incubated with 100 μM, 200 μM, 400 μM, 800 μM, 1.6 mM, 3.2 mM, or 6.4 mM of 2-NBDG for 5 min.

[2] = Arginine tolerance test (serum insulin after L-arginine injection); type: in vivo; details: wild-type and GnT-4a deficient mice, fasted 16 hr, i.p. 3 g/Kg
Protocol: Mice were fasted for 16 hr followed by intraperitoneal (i.p.) glucose injection (1.5 g/Kg body weight). Blood samples were obtained at 0, 30, 60, 120, and 240 min after the injection and measurements of glucose and insulin was determined, the latter using a rat insulin ELISA assay with a mouse insulin standard (Crystal Chem., Chicago, Ill.). In testing insulin tolerance, mice were injected i.p. with 2 U/kg body weight human insulin (Carbiochem, La Jolla, Calif.) followed by blood collection at 0, 30, 60 120, and 240 min after injection, and serum glucose levels were analyzed. In arginine tolerance tests, mice were fasted overnight for 16 hr followed by i.p. injection (3 g/Kg body weight) of L-arginine (Sigma, St. Louis, Mo.). Blood samples were analyzed at 0, 2, 5, 15, and 30 min after the injection.

| SMILES | Km ([1]; Mgat4a null islet cells) | Vmax of 2-NBDG uptake ([1]; Mgat4a null islets) | Km ([1]; wild-type islet cells) | Vmax of 2-NBDG uptake ([1]; wild-type islets) | Serum insulin concentrations after L-arginine treatment [2] |
| --- | --- | --- | --- | --- | --- |
| O=[N+]([O-])c1ccc(N[C@H]2C(O)O[C@H](CO)[C@@H](O)[C@@H]2O)c2nonc12 (stereo partly drawn) [2-NBDG, 2-[N-(7-nitrobenz-2-oxa-1,3-diazol-4-yl)amino]-2-deoxy-D-glucose] | 9.1 mM | 1.86 nmol/5 min/0.5×10^5 cells | 9.53 mM | 16.95 nmol/5 min/0.5×10^5 cells | – |
| N=C(N)NCCC[C@H](N)C(=O)O [L-arginine] | – | – | – | – | robust increases in serum insulin concentrations |
